One may read the IC50 as the point on the concentration scale where inhibition reaches its midpoint. Broadly, the inhibition is the drop in the measured response relative to a control, in per cent.

In one series the target is T1, Dopamine Transporter (Homo sapiens, UniProt Q01959).
T1 construct: NovaScreen
Description: NovaScreen assay. In kind it is binding.

In another series the target is T2, GABA-B (Homo sapiens, UniProt Q9UBS5).
T2 construct: NovaScreen
Description: NovaScreen assay. In kind it is binding. Particulars: read-out: Inhibition, 10 μM XL-647.

For series [1], the target named is T3, Muscarinic, M2 (Human Recombinant) (Homo sapiens, UniProt P08172).
T3 construct: NovaScreen
T3 sequence (P08172 whole entry): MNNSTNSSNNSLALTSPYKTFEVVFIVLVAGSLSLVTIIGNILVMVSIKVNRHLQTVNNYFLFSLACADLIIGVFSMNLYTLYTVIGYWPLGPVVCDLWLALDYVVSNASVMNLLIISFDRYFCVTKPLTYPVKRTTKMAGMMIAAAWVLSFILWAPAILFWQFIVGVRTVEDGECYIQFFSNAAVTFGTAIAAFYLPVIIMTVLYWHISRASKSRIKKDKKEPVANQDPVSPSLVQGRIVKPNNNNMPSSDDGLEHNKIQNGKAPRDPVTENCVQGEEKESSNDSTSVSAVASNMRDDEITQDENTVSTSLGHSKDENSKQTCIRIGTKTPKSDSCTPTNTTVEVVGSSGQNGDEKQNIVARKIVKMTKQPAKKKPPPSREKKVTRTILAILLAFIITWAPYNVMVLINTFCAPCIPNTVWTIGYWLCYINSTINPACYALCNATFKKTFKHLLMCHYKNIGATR
Put plainly: NovaScreen assay. Format: binding.

The subject of series [2] is Muscarinic, Non-selective, Central. Put plainly: NovaScreen assay. In kind it is binding.
In the next series the test system is Sodium, Site 2. Description: NovaScreen assay. In kind it is binding.
Series [3] addresses T4, GABA A, BDZ, alpha 1, Central (Homo sapiens, UniProt P14867+P18507).
T4 construct: NovaScreen
Description: NovaScreen assay. In kind it is binding. Particulars: read-out: Inhibition, 10 μM XL-647.

In series [4] the target is T5, Thyrotropin Releasing Hormone, TRH (Homo sapiens, UniProt P34981).
T5 construct: NovaScreen
T5 sequence (P34981 whole entry): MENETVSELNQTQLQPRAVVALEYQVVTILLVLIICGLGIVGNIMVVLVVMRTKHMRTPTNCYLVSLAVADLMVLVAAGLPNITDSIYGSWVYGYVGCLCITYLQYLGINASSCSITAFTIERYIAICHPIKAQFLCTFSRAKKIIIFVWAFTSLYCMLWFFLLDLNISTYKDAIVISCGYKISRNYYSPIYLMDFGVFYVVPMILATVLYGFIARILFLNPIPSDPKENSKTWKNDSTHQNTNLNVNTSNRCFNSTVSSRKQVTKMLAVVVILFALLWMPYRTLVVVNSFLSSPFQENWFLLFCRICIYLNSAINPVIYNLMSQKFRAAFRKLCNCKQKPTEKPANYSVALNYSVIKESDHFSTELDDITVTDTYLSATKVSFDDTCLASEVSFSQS
Description: NovaScreen assay. Format: binding. To be noted: read-out: Inhibition, 10 μM XL-647.

In the next series the test system is Galanin, Non-Selective. Put plainly: NovaScreen assay. In kind it is binding.
For another series, the target named is T6, FGFR1 (Homo sapiens, UniProt P11362).
T6 construct: cytoplasmic; GST-His6 (N); purchased ProQinase
Description: AlphaScreen kinase assay. In kind it is biochemical. On the procedure:
(§1) An AlphaScreen tyrosine kinase assay was used to measure ErbB2 and Flt-4 activity. Donor beads coated with streptavidin and acceptor beads coated with PY100 anti-phosphotyrosine antibody (Perkin-Elmer) were used. Biotinylated poly(Glu,Tyr) 4:1 was used as the substrate. Substrate phosphorylation was measured by luminescence following donor-acceptor bead addition followed by complex formation. Test compound, 3 μmol/L ATP, 3 nmol/L biotinylated poly(Glu,Tyr) 4:1, and 1 nmol/L ErbB2 (residues Q679-V1255 of human ErbB2, Proqinase) or Flt-4 (residues D725-R1298 of human Flt-4, Proqinase) were combined in a volume of 20 μL Assay Buffer (20 mM TrisHCl, pH 7.5, 10 mM MgCl2, 3 mM MnCl2, 1 mM DTT, 0.01% Triton) in a 384-well white, medium-binding microtiter plate (Greiner). Reaction mixtures were incubated for 1 h at room temperature. Reactions were quenched by addition of 10 μL of 15 to 30 μg/mL AlphaScreen bead suspension containing 75 mmol/L HEPES (pH 7.4), 300 mmol/L NaCl, 120 mmol/L EDTA, 0.3% bovine serum albumin, and 0.03% Tween 20. After 2 to 16 h of incubation at room temperature, plates were read using an AlphaQuest reader (Perkin-Elmer).
(§2) Further screening was performed using the biochemical assay methods of Example 2. Additional description of the components and concentrations are summarized in Table 8, Table 9, and Table 10, below.

For another series, the target named is T7, Fyn (Homo sapiens, UniProt P06241).
T7 construct: His6 (N); purchased Upstate Biotechnology
Put plainly: AlphaScreen kinase assay. Format: biochemical. The protocol:
as §1, §2
Background: In Alpha technology, singlet oxygen from a donor bead excites a nearby acceptor bead.

The target of another series is T8, EMK (Homo sapiens, UniProt Q7KZI7).
T8 construct: His6 (N)
T8 sequence (Q7KZI7 whole entry): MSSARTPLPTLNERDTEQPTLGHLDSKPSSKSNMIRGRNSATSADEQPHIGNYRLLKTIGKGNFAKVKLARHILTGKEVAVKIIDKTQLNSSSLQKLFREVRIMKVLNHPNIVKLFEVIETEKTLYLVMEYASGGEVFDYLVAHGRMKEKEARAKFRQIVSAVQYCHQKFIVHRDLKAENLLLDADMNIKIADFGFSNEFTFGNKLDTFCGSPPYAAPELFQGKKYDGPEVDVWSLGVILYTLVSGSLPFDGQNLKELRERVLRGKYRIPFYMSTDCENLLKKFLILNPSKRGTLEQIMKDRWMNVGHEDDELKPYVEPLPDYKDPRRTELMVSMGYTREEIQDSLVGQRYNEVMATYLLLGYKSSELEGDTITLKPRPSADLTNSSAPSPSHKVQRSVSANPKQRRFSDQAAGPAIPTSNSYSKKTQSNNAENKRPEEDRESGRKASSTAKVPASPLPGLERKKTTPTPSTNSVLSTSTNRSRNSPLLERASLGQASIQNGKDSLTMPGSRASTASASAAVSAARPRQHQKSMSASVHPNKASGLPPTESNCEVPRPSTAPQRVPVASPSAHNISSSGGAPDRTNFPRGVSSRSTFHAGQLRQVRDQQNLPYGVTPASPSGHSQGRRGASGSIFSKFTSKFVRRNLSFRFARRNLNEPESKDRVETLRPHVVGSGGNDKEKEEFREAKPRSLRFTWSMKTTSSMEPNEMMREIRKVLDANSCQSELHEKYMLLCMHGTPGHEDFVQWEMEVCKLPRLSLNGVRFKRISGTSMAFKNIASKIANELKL
Description: Chemiluminescent kinase assay. Format: biochemical. On the procedure:
as §2

The next series deals with T9, GSK3β (Homo sapiens, UniProt P49841).
T9 construct: His6 (N); purchased Upstate Biotechnology
Description: Chemiluminescent kinase assay. Format: biochemical. On the procedure:
as §2

A further series concerns the target T10, MAP4K3 (Homo sapiens, UniProt Q8IVH8).
T10 construct: Kinase domain,; His6 (N)
Put plainly: Chemiluminescent kinase assay. Format: biochemical. On the procedure: as §2

The target of another series is EphA2 (Homo sapiens, UniProt P29317). Put plainly: EphA2 autophosphorylation ELISA, PC-3 cells. Format: cell-based. Particulars: read-out: Cellular IC50, autophosphorylation. A general note: ELISA stands for enzyme-linked immunosorbent assay.
EphA2, sequence (P29317 24-976): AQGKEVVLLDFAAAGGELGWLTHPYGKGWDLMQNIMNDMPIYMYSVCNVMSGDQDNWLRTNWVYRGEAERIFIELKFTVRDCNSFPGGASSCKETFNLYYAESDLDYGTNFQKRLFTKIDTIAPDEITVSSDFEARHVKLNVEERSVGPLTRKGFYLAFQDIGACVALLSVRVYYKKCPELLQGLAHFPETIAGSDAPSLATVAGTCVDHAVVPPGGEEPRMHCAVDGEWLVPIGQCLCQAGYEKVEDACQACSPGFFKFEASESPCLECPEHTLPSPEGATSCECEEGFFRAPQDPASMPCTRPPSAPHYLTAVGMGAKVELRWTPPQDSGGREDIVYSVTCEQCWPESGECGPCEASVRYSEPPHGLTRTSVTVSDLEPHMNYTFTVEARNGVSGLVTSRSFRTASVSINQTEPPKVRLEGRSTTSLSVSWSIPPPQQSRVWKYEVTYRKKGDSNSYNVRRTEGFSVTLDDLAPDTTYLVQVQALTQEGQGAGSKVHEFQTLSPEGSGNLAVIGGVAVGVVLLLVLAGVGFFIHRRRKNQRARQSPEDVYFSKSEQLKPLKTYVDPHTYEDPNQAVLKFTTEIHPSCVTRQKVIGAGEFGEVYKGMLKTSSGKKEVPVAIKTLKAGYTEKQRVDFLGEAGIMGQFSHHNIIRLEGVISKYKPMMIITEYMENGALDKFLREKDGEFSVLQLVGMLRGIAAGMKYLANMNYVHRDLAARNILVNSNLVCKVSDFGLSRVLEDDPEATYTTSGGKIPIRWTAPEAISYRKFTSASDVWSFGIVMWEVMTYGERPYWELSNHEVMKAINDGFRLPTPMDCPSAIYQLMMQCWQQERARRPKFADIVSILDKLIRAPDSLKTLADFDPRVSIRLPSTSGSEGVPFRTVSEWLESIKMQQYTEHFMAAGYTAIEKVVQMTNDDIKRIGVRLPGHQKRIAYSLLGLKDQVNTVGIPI
The test system of series [5] is AKT phosphorylation (H1975 cells). Description: Immunoblot analysis of H1975 cell lysates. In kind it is cell-based, human. On the procedure:
(§3) For the H1975 immunoblot studies, 3×10^5 cells were plated in each well (12-well plate) and incubated for 16 h in complete RPMI 1640, rinsed with fetal bovine serum-free RPMI 1640, and incubated with serial dilutions of test compounds in fetal bovine serum-free medium for 2 h followed by stimulation with 100 ng/mL human recombinant EGF for 10 min. Whole-cell protein lysates were prepared as described above and centrifuged for 10 min at 13,000×g at 4° C. to remove any insoluble material. Total protein was determined using bicinchoninic acid reagent and an equal amount of protein was combined with LDS loading buffer (Invitrogen) according to the manufacturer's instructions. Proteins were separated by gel electrophoresis on 4% to 15% polyacrylamide gels, transferred to nitrocellulose membranes, and detected by immunoblotting. Antibody:antigen complexes were detected using chemiluminescence. The following antibodies from Cell Signaling Technology were used at a 1:1,000 dilution: anti-EGFR, anti-pEGFR^Tyr1068, anti-AKT, anti-pAKT^Ser473, anti-ERK, and anti-pERK^Thr202/Tyr204. The anti-β-actin primary antibody (Accurate Chemical and Scientific) was used at 1:10,000 and the horseradish peroxidase-coupled secondary antibodies were purchased from Jackson ImmunoResearch and used at 1:5,000.
For orientation: Immunoblotting shows a protein as a band on a membrane.

For series [6], the system named is ERK phosphorylation (H1975 cells). Put plainly: Immunoblot analysis of H1975 cell lysates. In kind it is cell-based, human. On the procedure: as §3
For series [7] the following is noted: mouse, in vivo, 100 mg/kg/day.
Description: Throughout the dosing period, tumor size was measured twice weekly (where applicable), and body weight was measured daily. […] Tumors were excised at the termination of some studies and examined histologically for microvascular density (CD31 staining), proliferating cells (Ki67 staining), and necrosis (hematoxylin/eosin staining).
Tolerability was monitored in these studies by daily measurement of body weight.
[8] abbreviates: read-out: Inhibition, 10 μM XL-647.

Bounds are passed on as bounds.

T1 sequence (Q01959 whole entry): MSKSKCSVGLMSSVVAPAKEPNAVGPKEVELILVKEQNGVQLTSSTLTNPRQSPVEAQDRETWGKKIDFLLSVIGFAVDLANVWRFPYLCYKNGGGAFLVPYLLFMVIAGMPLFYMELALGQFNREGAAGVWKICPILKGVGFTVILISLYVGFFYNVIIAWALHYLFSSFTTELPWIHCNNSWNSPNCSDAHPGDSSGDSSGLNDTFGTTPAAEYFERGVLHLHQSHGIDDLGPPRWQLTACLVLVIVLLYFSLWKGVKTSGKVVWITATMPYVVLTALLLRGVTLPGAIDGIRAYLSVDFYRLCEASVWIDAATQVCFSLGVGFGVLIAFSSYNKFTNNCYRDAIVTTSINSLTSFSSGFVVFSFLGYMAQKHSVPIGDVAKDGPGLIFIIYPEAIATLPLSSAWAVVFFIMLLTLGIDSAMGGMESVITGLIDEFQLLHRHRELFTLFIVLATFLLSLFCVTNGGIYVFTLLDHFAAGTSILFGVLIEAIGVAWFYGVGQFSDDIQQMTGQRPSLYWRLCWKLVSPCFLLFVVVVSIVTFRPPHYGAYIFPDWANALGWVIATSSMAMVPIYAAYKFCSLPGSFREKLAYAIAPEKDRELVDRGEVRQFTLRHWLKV
T4 sequence (P14867 28-456): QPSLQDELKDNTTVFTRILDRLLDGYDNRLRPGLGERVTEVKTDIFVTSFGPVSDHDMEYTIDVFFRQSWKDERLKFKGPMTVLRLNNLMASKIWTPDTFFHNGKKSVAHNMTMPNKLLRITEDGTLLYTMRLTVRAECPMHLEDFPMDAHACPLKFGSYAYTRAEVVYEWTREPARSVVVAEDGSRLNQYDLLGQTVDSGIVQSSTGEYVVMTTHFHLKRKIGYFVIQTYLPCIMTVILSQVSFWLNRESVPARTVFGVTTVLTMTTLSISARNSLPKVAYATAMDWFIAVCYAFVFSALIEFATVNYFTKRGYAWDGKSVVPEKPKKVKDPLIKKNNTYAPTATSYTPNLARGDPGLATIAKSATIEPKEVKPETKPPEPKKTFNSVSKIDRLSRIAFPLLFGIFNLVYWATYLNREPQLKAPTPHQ
T4 sequence (P18507 40-475): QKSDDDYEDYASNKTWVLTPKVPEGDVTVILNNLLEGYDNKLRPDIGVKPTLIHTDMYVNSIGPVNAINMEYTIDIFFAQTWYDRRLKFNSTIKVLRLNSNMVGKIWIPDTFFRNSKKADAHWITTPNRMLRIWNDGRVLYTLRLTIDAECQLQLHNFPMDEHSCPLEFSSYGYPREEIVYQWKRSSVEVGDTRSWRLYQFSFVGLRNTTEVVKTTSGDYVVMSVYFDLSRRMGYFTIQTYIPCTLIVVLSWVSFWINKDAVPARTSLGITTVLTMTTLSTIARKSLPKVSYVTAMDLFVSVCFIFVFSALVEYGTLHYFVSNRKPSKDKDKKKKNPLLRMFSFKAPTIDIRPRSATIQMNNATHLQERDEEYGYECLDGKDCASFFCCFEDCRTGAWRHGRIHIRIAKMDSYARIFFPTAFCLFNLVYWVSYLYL
T4 sequence (P47870 25-512 partner limits assumed): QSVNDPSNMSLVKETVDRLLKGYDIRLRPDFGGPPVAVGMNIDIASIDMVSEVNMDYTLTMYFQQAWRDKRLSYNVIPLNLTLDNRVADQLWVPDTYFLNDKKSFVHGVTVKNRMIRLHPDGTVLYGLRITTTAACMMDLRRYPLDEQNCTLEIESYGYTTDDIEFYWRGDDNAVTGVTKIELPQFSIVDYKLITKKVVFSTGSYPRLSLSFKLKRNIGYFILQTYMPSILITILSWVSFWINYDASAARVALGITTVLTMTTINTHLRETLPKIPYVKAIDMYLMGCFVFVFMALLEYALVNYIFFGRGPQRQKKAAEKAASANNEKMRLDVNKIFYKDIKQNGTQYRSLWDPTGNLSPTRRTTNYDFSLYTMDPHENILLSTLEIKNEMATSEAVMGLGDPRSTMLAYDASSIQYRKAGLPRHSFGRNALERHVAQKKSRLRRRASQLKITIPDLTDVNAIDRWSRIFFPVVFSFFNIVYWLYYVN
T10 sequence (Q8IVH8 16-273 limits assumed, species assumed): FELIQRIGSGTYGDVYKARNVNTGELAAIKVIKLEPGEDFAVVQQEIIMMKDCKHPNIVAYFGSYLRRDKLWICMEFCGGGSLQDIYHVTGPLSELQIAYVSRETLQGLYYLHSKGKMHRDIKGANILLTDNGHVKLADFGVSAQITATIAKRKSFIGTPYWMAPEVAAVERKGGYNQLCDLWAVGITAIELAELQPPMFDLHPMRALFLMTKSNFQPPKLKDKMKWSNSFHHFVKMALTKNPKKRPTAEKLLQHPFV
Description for EphA2: The EphA2 autophosphorylation ELISA utilized PC-3 (ATCC) cells. Cells were seeded at 2.5×10^4 cells/well onto 96-well microtiter plates (Costar 3904), in DMEM (Cellgro) containing 10% FBS (Heat-Inactivated, Hyclone), 1% penicillin-streptomycin (Cellgro), and 1% NEAA solution (Cellgro). The cells were then incubated at 37° C., 5% CO2 for 16 h. Growth media was replaced with serum-free DMEM and cells were incubated for an additional 24 hr. […] Negative control wells were not treated with growth factor. After treatment, media was removed, the cell monolayer washed with cold PBS and immediately lysed with cold lysis buffer. Lysates were centrifuged and incubated into 96-well streptavidin-coated plates (Pierce) coated with biotin-conjugated, mouse anti-phosphotyrosine, PY20 (2 μg/ml, Calbiochem). Plates were incubated with rabbit polyclonal anti-EphA2, C-20 (1:500, Santa Cruz Biotechnology, Inc), followed by secondary antibody (HRP-conjugated, goat anti-rabbit IgG, 1:1000 from Cell Signaling) and the addition of a luminol-based substrate solution. Plates were read with a Victor spectrophotometer (Wallac).

As for `COc1cc2c(Nc3ccc(Cl)c(Cl)c3F)ncnc2cc1OC[C@@H]1C[C@@H]2CN(C)C[C@@H]2C1` [XL-647, N-(3,4-dichloro-2-fluorophenyl)-7-({[(3aR,5r,6aS)-2-methyloctahydrocyclopenta[c]pyrrol-5-yl]methyl}oxy)-6-(methyloxy)quinazolin-4-amine], the 50% inhibitory concentration (IC50) against Dopamine Transporter is 2.48 µM; in [1], 1.18 µM; in [2], 2.57 µM; against FGFR1 it was 0.855 ± 0.0963 µM; against Fyn it was 0.041 ± 0.0081 µM; at EMK, greater than 10 µM. For the same compound, the IC50 against GSK3β was greater than 1 µM; against MAP4K3, greater than 1 µM; at EphA2, 1.1 µM. Moreover, the inhibition at 10 µM on Dopamine Transporter (setting [8]) was 87.1%; on GABA-B, -1.19%; in series [1] (setting [8]) it was 98.7%; in series [3], 7.34%; in series [4], 4.59%. Further, the “Inhibition, 10 μM XL-647” value in [2] (10 μM) amounted to 97.91%; with Sodium, Site 2 it was 88.06%; with Galanin, Non-Selective, 1.57%. Also, the “phosphorylation of AKT, immunoblot” value in series [5] was “inhibits the phosphorylation of AKT and ERK”. In addition, in [6], the “phosphorylation of ERK, immunoblot” value was “inhibits the phosphorylation of AKT and ERK”. Besides, the “tolerability, in words” value in series [7] was “generally well-tolerated in mice without substantial body weight loss”.

The values are drawn from patent US9364479B2, “Use of a receptor-type kinase modulator for treating polycystic kidney disease” (SYMPHONY EVOLUTION, INC., priority 2010, dated 2016).
